Laboratory results taken from ChEMBL document CHEMBL3885861, “Open TG-GATES”.

Species: Rattus norvegicus
Assay: Open TG-GATES - Regimen: Daily Repeat
Type: toxicity, organism-based, Sprague-Dawley
Parameters: regimen Daily Repeat, gender Male, age 6 weeks
Conditions: in vivo, po, 50 mg/kg, route gavage, dose level High; for APTT / Bas / Eos / Fbg / Hb / Ht / Lym / MCH / MCHC / MCV / Mono / Neu / PT / Plat / RBC / Ret / WBC: tissue Blood; for KIDNEY_L / KIDNEY_R / KIDNEY_TOTAL: tissue Kidney; for LIVER: tissue Liver; for A/G / ALP / ALT / AST / BUN / CRE / Ca / Cl / DBIL / GLC / IP / K / LDH / Na / PL / RALB / TBIL / TC / TG / TP / gamma-GTP: tissue Plasma

`CC1=C(CC(=O)O)c2cc(F)ccc2/C1=C\c1ccc([S+](C)[O-])cc1` (configuration not stated) showed a TERMINAL_BW (72 h, time 3 day) of 223.6 g, an APTT (72 h, time 3 day) of 18.5 s and a Bas (72 h, time 3 day) of 0.2%. For the same compound, the Eos (72 h, time 3 day) was 1.2%, the Fbg (72 h, time 3 day) was 396.2 mg/dL and the Hb (72 h, time 3 day) was 13.9 g/dL. The Ht (72 h, time 3 day) was 41.6%, the Lym (72 h, time 3 day) was 71.2% and the MCH (72 h, time 3 day) was 20.7 pg. It also gave an MCHC (72 h, time 3 day) of 33.3%, an MCV (72 h, time 3 day) of 62.3 fL and a Mono (72 h, time 3 day) of 3.4%. It also gave a Neu (72 h, time 3 day) of 24%, a PT (72 h, time 3 day) of 13.3 s and a Plat (72 h, time 3 day) of 112.6 x10_4/uL. The RBC (72 h, time 3 day) was 668 x10_4/ul, the Ret (72 h, time 3 day) was 6% and the WBC (72 h, time 3 day) was 137.2 x10_2/uL. The KIDNEY_L (72 h, time 3 day) was 1 g, the KIDNEY_R (72 h, time 3 day) was 1 g and the KIDNEY_TOTAL (72 h, time 3 day) was 2 g. For the same compound, the LIVER (72 h, time 3 day) was 11 g, the A/G (72 h, time 3 day) was 0.9 and the ALP (72 h, time 3 day) was 1504.6 IU/L. It also gave an ALT (72 h, time 3 day) of 38.2 IU/L, an AST (72 h, time 3 day) of 63 IU/L and a BUN (72 h, time 3 day) of 15.6 mg/dL. It also gave a CRE (72 h, time 3 day) of 0.2 mg/dL, a Ca (72 h, time 3 day) of 11 mg/dL and a Cl (72 h, time 3 day) of 106.8 meq/L. It also gave a DBIL (72 h, time 3 day) of 0.008 mg/dL, a GLC (72 h, time 3 day) of 178.4 mg/dL and an IP (72 h, time 3 day) of 6.5 mg/dL. It also gave a K (72 h, time 3 day) of 4.2 meq/L, an LDH (72 h, time 3 day) of 96.4 IU/L and a Na (72 h, time 3 day) of 141.8 meq/L. It also gave a PL (72 h, time 3 day) of 164.4 mg/dL, an RALB (72 h, time 3 day) of 2.6 g/dL and a TBIL (72 h, time 3 day) of 0.016 mg/dL. The TC (72 h, time 3 day) was 91.2 mg/dL, the TG (72 h, time 3 day) was 129.8 mg/dL and the TP (72 h, time 3 day) was 5.4 g/dL. For the same compound, the gamma-GTP (72 h, time 3 day) was 1.2 IU/L, the TERMINAL_BW ([…], time 7 day) was 211.2 g and the TERMINAL_BW ([…], time 14 day) was 263.8 g. The TERMINAL_BW ([…], time 28 day) was 295.9 g, the APTT ([…], time 7 day) was 16.7 s and the Bas ([…], time 7 day) was 0.6%. The Eos ([…], time 7 day) was 1.2%, the Fbg ([…], time 7 day) was 522.6 mg/dL and the Hb ([…], time 7 day) was 11.5 g/dL. The Ht ([…], time 7 day) was 35.1%, the Lym ([…], time 7 day) was 55% and the MCH ([…], time 7 day) was 20.8 pg. It also gave an MCHC ([…], time 7 day) of 32.8%, an MCV ([…], time 7 day) of 63.4 fL and a Mono ([…], time 7 day) of 3.8%. For the same compound, the Neu ([…], time 7 day) was 38.8%, the PT ([…], time 7 day) was 13 s and the Plat ([…], time 7 day) was 252.7 x10_4/uL. It also gave an RBC ([…], time 7 day) of 553.6 x10_4/ul, a Ret ([…], time 7 day) of 11.8% and a WBC ([…], time 7 day) of 207.1 x10_2/uL. The APTT ([…], time 14 day) was 25.1 s, the Bas ([…], time 14 day) was 0% and the Eos ([…], time 14 day) was 1.7%. It also gave a Fbg ([…], time 14 day) of 447 mg/dL, a Hb ([…], time 14 day) of 10.8 g/dL and a Ht ([…], time 14 day) of 33.6%. For the same compound, the Lym ([…], time 14 day) was 56%, the MCH ([…], time 14 day) was 20.6 pg and the MCHC ([…], time 14 day) was 31.6%. It also gave an MCV ([…], time 14 day) of 65.2 fL, a Mono ([…], time 14 day) of 4% and a Neu ([…], time 14 day) of 37%. It also gave a PT ([…], time 14 day) of 13.3 s, a Plat ([…], time 14 day) of 243.4 x10_4/uL and an RBC ([…], time 14 day) of 517.7 x10_4/ul. The Ret ([…], time 14 day) was 16.3%, the WBC ([…], time 14 day) was 216.8 x10_2/uL and the APTT ([…], time 28 day) was 18.9 s. For the same compound, the Bas ([…], time 28 day) was 0%, the Eos ([…], time 28 day) was 1.7% and the Fbg ([…], time 28 day) was 577 mg/dL. For the same compound, the Hb ([…], time 28 day) was 10.2 g/dL, the Ht ([…], time 28 day) was 34.4% and the Lym ([…], time 28 day) was 51.7%. It also gave an MCH ([…], time 28 day) of 18.1 pg, an MCHC ([…], time 28 day) of 29.3% and an MCV ([…], time 28 day) of 61.7 fL. For the same compound, the Mono ([…], time 28 day) was 4.7%, the Neu ([…], time 28 day) was 41% and the PT ([…], time 28 day) was 11.9 s. For the same compound, the Plat ([…], time 28 day) was 221.3 x10_4/uL, the RBC ([…], time 28 day) was 561.3 x10_4/ul and the Ret ([…], time 28 day) was 16.6%. It also gave a WBC ([…], time 28 day) of 217.4 x10_2/uL, a KIDNEY_L ([…], time 7 day) of 1 g and a KIDNEY_R ([…], time 7 day) of 1 g. It also gave a KIDNEY_TOTAL ([…], time 7 day) of 2 g, a KIDNEY_L ([…], time 14 day) of 1.1 g and a KIDNEY_R ([…], time 14 day) of 1.1 g. For the same compound, the KIDNEY_TOTAL ([…], time 14 day) was 2.2 g, the KIDNEY_L ([…], time 28 day) was 1.3 g and the KIDNEY_R ([…], time 28 day) was 1.2 g. It also gave a KIDNEY_TOTAL ([…], time 28 day) of 2.5 g, an LIVER ([…], time 7 day) of 10.6 g and an LIVER ([…], time 14 day) of 13.4 g. The LIVER ([…], time 28 day) was 15.2 g, the A/G ([…], time 7 day) was 0.9 and the ALP ([…], time 7 day) was 1360.6 IU/L. It also gave an ALT ([…], time 7 day) of 24.4 IU/L, an AST ([…], time 7 day) of 64 IU/L and a BUN ([…], time 7 day) of 39.8 mg/dL. The CRE ([…], time 7 day) was 0.3 mg/dL, the Ca ([…], time 7 day) was 10.6 mg/dL and the Cl ([…], time 7 day) was 104 meq/L. It also gave a DBIL ([…], time 7 day) of 0.032 mg/dL, a GLC ([…], time 7 day) of 154.2 mg/dL and an IP ([…], time 7 day) of 7.5 mg/dL. The K ([…], time 7 day) was 4.3 meq/L, the LDH ([…], time 7 day) was 96.8 IU/L and the Na ([…], time 7 day) was 141 meq/L. The PL ([…], time 7 day) was 157.6 mg/dL, the RALB ([…], time 7 day) was 2.4 g/dL and the TBIL ([…], time 7 day) was 0.066 mg/dL. For the same compound, the TC ([…], time 7 day) was 78.8 mg/dL, the TG ([…], time 7 day) was 104.2 mg/dL and the TP ([…], time 7 day) was 5.1 g/dL. For the same compound, the gamma-GTP ([…], time 7 day) was 5 IU/L, the A/G ([…], time 14 day) was 0.9 and the ALP ([…], time 14 day) was 806 IU/L. It also gave an ALT ([…], time 14 day) of 28.7 IU/L, an AST ([…], time 14 day) of 49.3 IU/L and a BUN ([…], time 14 day) of 18.3 mg/dL. It also gave a CRE ([…], time 14 day) of 0.3 mg/dL, a Ca ([…], time 14 day) of 10.5 mg/dL and a Cl ([…], time 14 day) of 106.3 meq/L. The DBIL ([…], time 14 day) was 0.0133 mg/dL, the GLC ([…], time 14 day) was 156.3 mg/dL and the IP ([…], time 14 day) was 5.3 mg/dL. The K ([…], time 14 day) was 4.5 meq/L, the LDH ([…], time 14 day) was 74 IU/L and the Na ([…], time 14 day) was 141.7 meq/L. For the same compound, the PL ([…], time 14 day) was 203 mg/dL, the RALB ([…], time 14 day) was 2.5 g/dL and the TBIL ([…], time 14 day) was 0.03 mg/dL. The TC ([…], time 14 day) was 96.7 mg/dL, the TG ([…], time 14 day) was 326.7 mg/dL and the TP ([…], time 14 day) was 5.4 g/dL. It also gave a gamma-GTP ([…], time 14 day) of 1.7 IU/L, an A/G ([…], time 28 day) of 0.8 and an ALP ([…], time 28 day) of 657 IU/L. For the same compound, the ALT ([…], time 28 day) was 23.3 IU/L, the AST ([…], time 28 day) was 47.3 IU/L and the BUN ([…], time 28 day) was 18.3 mg/dL. For the same compound, the CRE ([…], time 28 day) was 0.3 mg/dL, the Ca ([…], time 28 day) was 10 mg/dL and the Cl ([…], time 28 day) was 103 meq/L. For the same compound, the DBIL ([…], time 28 day) was 0.0067 mg/dL, the GLC ([…], time 28 day) was 149.3 mg/dL and the IP ([…], time 28 day) was 7 mg/dL. It also gave a K ([…], time 28 day) of 3.8 meq/L, an LDH ([…], time 28 day) of 92 IU/L and a Na ([…], time 28 day) of 141.7 meq/L. For the same compound, the PL ([…], time 28 day) was 181.7 mg/dL, the RALB ([…], time 28 day) was 2.3 g/dL and the TBIL ([…], time 28 day) was 0.06 mg/dL. It also gave a TC ([…], time 28 day) of 88.7 mg/dL, a TG ([…], time 28 day) of 261.7 mg/dL and a TP ([…], time 28 day) of 5.1 g/dL. It also gave a gamma-GTP ([…], time 28 day) of 1.7 IU/L.
